ChEMBL document CHEMBL3124919, “Design, synthesis and biological evaluation of 3-[4-(7-chloro-quinolin-4-yl)-piperazin-1-yl]-propionic acid hydrazones as antiprotozoal agents” (Eur J Med Chem, 2014)
Activity calls are given as the source filed them. The calls are words filed in the database; no cut-off is given here.

Assays:
[1] = Cytotoxicity against human erythrocytes assessed as hemolysis at 25 uM after 1 hr by spectrophotometry; type: cell-based; details: erythrocyte
[2] = Cytotoxicity against BALB/c mouse splenocytes assessed as [3H]-thymidine incorporation after 24 hrs by beta-radiation counting analysis relative to control; type: cell-based; details: Splenocyte
Plasmodium falciparum [3] = test: Antimicrobial activity against erythrocytic stage of chloroquine-resistant Plasmodium falciparum W2 infected in human erythrocytes assessed as [3H]hypoxanthine incorporation at 1 ug/ml after 24 hrs by beta-radiation counting analysis; type: functional
Entamoeba histolytica [4] = test: Antiprotozoal activity against Entamoeba histolytica HM-1:IMSS trophozoites after 72 hrs by microdilution method; type: functional, organism-based
[5] = Inhibition of beta-hematin formation at 2.5 mM after 24 hrs by spectrophotometry; type: physicochemical; details: 2500 µM
Plasmodium falciparum [6] = test: Antimicrobial activity against erythrocytic stage of chloroquine-resistant Plasmodium falciparum W2 infected in human erythrocytes assessed as [3H]hypoxanthine incorporation after 24 hrs by beta-radiation counting analysis; type: functional, organism-based
Plasmodium falciparum [7] = test: Antimicrobial activity against ring stage chloroquine-resistant Plasmodium falciparum W2 infected in human erythrocytes assessed as inhibition of schizont stage parasite growth at 0.5 to 1 uM after 48 hrs by light microscopy; type: functional, organism-based
Entamoeba histolytica [8] = test: Ratio of metronidazole IC50 to compound IC50 for Entamoeba histolytica HM-1:IMSS trophozoites; type: functional
[9] = Selectivity index, ratio of IC50 for BALB/c mouse splenocytes to IC50 for Entamoeba histolytica HM-1:IMSS trophozoites
[10] = Plasmodium falciparum, W2, read-out: IC50

SMILES	IC50 [2] [µM]	inhibition at 1 µg/mL (Plasmodium falciparum [3]) [%]	IC50 (Entamoeba histolytica [4]) [µM]	IC50 (Plasmodium falciparum [6]; [10]) [nM]	also measured
O=C(CCN1CCN(c2ccnc3cc(Cl)ccc23)CC1)N/N=C/c1ccccc1Cl	10.8	97.9	12.3	780	Activity [1]: Non-toxic; inhibition (INH) [5]: 87.3%
COc1ccc(/C=N/NC(=O)CCN2CCN(c3ccnc4cc(Cl)ccc34)CC2)cc1		43	19.7		
O=C(CCN1CCN(c2ccnc3cc(Cl)ccc23)CC1)N/N=C/c1ccccc1C(F)(F)F		59.6	8.1		
COc1ccc(OC)c(/C=N/NC(=O)CCN2CCN(c3ccnc4cc(Cl)ccc34)CC2)c1		37.4	8.2		
O=C(CCN1CCN(c2ccnc3cc(Cl)ccc23)CC1)N/N=C/c1ccccc1[N+](=O)[O-]		73.1	11.3		
CCOC(OCC)c1ccc(/C=N/NC(=O)CCN2CCN(c3ccnc4cc(Cl)ccc34)CC2)cc1		71.7	> 100		
COc1cc(/C=N/NC(=O)CCN2CCN(c3ccnc4cc(Cl)ccc34)CC2)cc(Br)c1O		41.5	20.5		IC50 (Plasmodium falciparum [6]): Not Active
O=C(CCN1CCN(c2ccnc3cc(Cl)ccc23)CC1)N/N=C/c1ccc(O)cc1		80.6	> 100		
O=C(CCN1CCN(c2ccnc3cc(Cl)ccc23)CC1)N/N=C/c1ccc([N+](=O)[O-])cc1	12.1	38.4	0.95		
O=C(CCN1CCN(c2ccnc3cc(Cl)ccc23)CC1)N/N=C/c1ccccc1O	11.5	98.9	25.6	330	Activity [1]: Non-toxic; inhibition (INH) [5]: 83.2%; Activity (Plasmodium falciparum [7]): Active
CCN(CC)CCCC(C)Nc1ccnc2cc(Cl)ccc12 (configuration not stated) [CHLOROQUINE]					inhibition (INH) [5]: 87.1%
COc1cc(/C=N/NC(=O)CCN2CCN(c3ccnc4cc(Cl)ccc34)CC2)c(Br)c(OC)c1OC	9.6	42.9	3.7		IC50 (Plasmodium falciparum [6]): Not Active
COc1cc(/C=N/NC(=O)CCN2CCN(c3ccnc4cc(Cl)ccc34)CC2)ccc1OC(C)C	8.8	98.6	15.5	4500	Activity [1]: Non-toxic; inhibition (INH) [5]: 15.7%
O=C(CCN1CCN(c2ccnc3cc(Cl)ccc23)CC1)N/N=C/c1ccc2c(c1)OCO2		27.8	> 100		
COc1cc(/C=N/NC(=O)CCN2CCN(c3ccnc4cc(Cl)ccc34)CC2)cc(OC)c1OC		47.4	12.4		
O=C(CCN1CCN(c2ccnc3cc(Cl)ccc23)CC1)N/N=C/c1ccccn1		0	> 100		
O=C(CCN1CCN(c2ccnc3cc(Cl)ccc23)CC1)N/N=C/c1cc(Br)c(O)c(Br)c1		28	6.6		IC50 (Plasmodium falciparum [6]): Not Active
CCc1ccc(/C=N/NC(=O)CCN2CCN(c3ccnc4cc(Cl)ccc34)CC2)cc1		97.8	11.1		

SMILES	IC50 [2] [µM]	inhibition at 1 µg/mL (Plasmodium falciparum [3]) [%]	IC50 (Entamoeba histolytica [4]) [µM]	IC50 (Plasmodium falciparum [6]; [10]) [nM]	also measured
O=C(CCN1CCN(c2ccnc3cc(Cl)ccc23)CC1)N/N=C/c1cccc([N+](=O)[O-])c1		19.9	12.6		
CC(C)Oc1ccc(/C=N/NC(=O)CCN2CCN(c3ccnc4cc(Cl)ccc34)CC2)cc1	3.6	98	5.3	800	
COc1cc(/C=N/NC(=O)CCN2CCN(c3ccnc4cc(Cl)ccc34)CC2)ccc1OC(C)=O	15.8	0	0.13		Ratio IC50 (Entamoeba histolytica [8]): 10; Ratio IC50 [9]: 121
Cc1ncc([N+](=O)[O-])n1CCO [METRONIDAZOLE]	5.4		1.5		
NNC(=O)CCN1CCN(c2ccnc3cc(Cl)ccc23)CC1	> 100	74.1		41700	inhibition (INH) [5]: 21.7%
CCOc1ccc(/C=N/NC(=O)CCN2CCN(c3ccnc4cc(Cl)ccc34)CC2)cc1		14.9	12		
O=C(CCN1CCN(c2ccnc3cc(Cl)ccc23)CC1)N/N=C/c1ccc(Cl)cc1	0.2	98.4	87.2	1400	
O=C(CCN1CCN(c2ccnc3cc(Cl)ccc23)CC1)N/N=C/c1cccc(Cl)c1	> 100	97.3	7.7		
O[C@@H](c1cc(C(F)(F)F)nc2c(C(F)(F)F)cccc12)[C@H]1CCCCN1 (relative stereo) [(S,R)-MEFLOQUINE]	9.5			40	
CCOC(=O)COc1ccc(/C=N/NC(=O)CCN2CCN(c3ccnc4cc(Cl)ccc34)CC2)cc1OC		71.7	> 100		
Cc1ccc(/C=N/NC(=O)CCN2CCN(c3ccnc4cc(Cl)ccc34)CC2)cc1		81.4	8.1		
O=C(CCN1CCN(c2ccnc3cc(Cl)ccc23)CC1)N/N=C/c1c[nH]c2ccccc12	5.7	81.5	9.6	3300	Activity [1]: Non-toxic; inhibition (INH) [5]: 43.3%
CC(C)c1ccc(/C=N/NC(=O)CCN2CCN(c3ccnc4cc(Cl)ccc34)CC2)cc1	7.9	97.5	17.1	1700	Activity [1]: Non-toxic; inhibition (INH) [5]: 94%
COc1cc(/C=N/NC(=O)CCN2CCN(c3ccnc4cc(Cl)ccc34)CC2)ccc1O	9.4	99.1	21.3	2100	Activity [1]: Non-toxic; inhibition (INH) [5]: 50.7%
COc1ccc(/C=N/NC(=O)CCN2CCN(c3ccnc4cc(Cl)ccc34)CC2)cc1OC		98.4	11.6		
CN(C)c1ccc(/C=N/NC(=O)CCN2CCN(c3ccnc4cc(Cl)ccc34)CC2)cc1	> 100	98	15.2	1300	Activity [1]: Non-toxic; inhibition (INH) [5]: 94.2%
CCOc1ccccc1/C=N/NC(=O)CCN1CCN(c2ccnc3cc(Cl)ccc23)CC1		28.1	> 100		
O=C(CCN1CCN(c2ccnc3cc(Cl)ccc23)CC1)N/N=C/c1ccccc1	0.3	93.3	6.6	200	
